Measurements: PubChem BioAssay (NCI)
Values joined by “and” are separate entries in the source; they are usually repeats but may differ in a detail not shown here. Identical values can stand only once.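 How tested: cells in 96-well plates exposed to compound for 48 hours at five concentrations. GI50 = concentration required for 50% inhibition of growth. The concentration for full growth arrest is given as TGI.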

Columns and labels:
Experiment in all cases: NCI tumour cell line growth inhibition, 48 h
[1] = test system: ACHN renal
[2] = test system: PC-3 prostate
[3] = test system: RPMI-8226 leukemia
[4] = test system: OVCAR-3 ovarian
[5] = test system: UACC-257 melanoma
[6] = test system: SF-295 CNS
[7] = test system: RXF 393 renal
[8] = test system: NCI/ADR-RES ovarian
[9] = test system: HT29 colon
[10] = test system: MOLT-4 leukemia

| Compound | GI50 [1] [µM] | TGI [1] | GI50 [2] [µM] | TGI [2] [µM] | GI50 [3] [µM] | TGI [3] [µM] | GI50 [4] [µM] | TGI [4] [µM] | GI50 [5] [µM] | TGI [5] [µM] | GI50 [6] [µM] | TGI [6] [µM] | GI50 [7] [µM] | TGI [7] [µM] | GI50 [8] [µM] | TGI [8] [µM] | GI50 [9] [µM] | TGI [9] [µM] | GI50 [10] [µM] | TGI [10] [µM] |
| --- | --- | --- | --- | --- | --- | --- | --- | --- | --- | --- | --- | --- | --- | --- | --- | --- | --- | --- | --- | --- |
| C/C(=N\NC(=O)c1ccncc1)c1ccccc1O | 1.64 | > 100 µM | 8.66 | > 100 | 4.68 | > 100 | 3.35 | > 100 | 4.14 | > 100 | 1.38 | > 100 | 8.15 | > 100 | 2.23 | > 100 | 1.6 | > 100 | 2.35 | > 100 |
| Cn1c(=O)c(-c2c(Cl)cccc2Cl)cc2cnc(Nc3ccc(N4CCOCC4)cc3)nc21 | – | – | 0.474 | > 100 | 0.356 | 1.78 | 0.323 | > 100 | – | > 22.4 | 0.2 | > 100 | 1.36 | 3.86 | 0.0158 | 0.09 | < 0.0467 | 1.17 | < 0.0476 | 0.804 |
| CCn1c(SC)nnc1-c1cc2c([nH]c3ccccc32)c(-c2cccc(O)c2)n1 | 2.12 | 6.47 µM | 2.83 | > 100 | 1.58 | 10.2 | 1.67 | 5.35 | – | – | 1.83 | 5.23 | 1.14 | 3.18 | 3.71 | 36.1 | 3.41 | 12.5 | 2.05 | > 100 |
| Cc1cc(C2(c3cc(C)c(O)c4ncccc34)OC(=O)c3ccccc32)c2cccnc2c1O | – | 1.17 µM and 1.45 µM | 0.0957 | > 100 | – | > 100 | – | – | 0.496 | > 100 | 0.012 | 21.3 | – | > 100 | 0.0138 | 17.1 | 0.106 | > 100 | – | > 100 |
| N#Cc1c(N/N=C/c2c(Cl)cccc2Cl)nc(N)nc1N1CCCC1 | 3.18 | > 100 µM | 2.89 | 40 | 2.56 | 8.21 | 0.878 | > 100 | – | – | 1.02 | > 100 | 2.34 | > 100 | 1.5 | 6.98 | 1.96 | > 100 | 2.88 | 18.3 |
| COc1ccc(S(=O)(=O)NCCCNc2nccc(-c3c(-c4ccc(F)cc4)nc4sccn34)n2)cc1 | 2.73 | > 100 µM | 8.74 | > 100 | 6.25 | 58.2 | – | – | 12.6 | > 100 | 11.2 | 72.3 | 3.36 | 76.7 | 5.23 | > 100 | 2.84 | 20.2 | 5.7 | > 100 |
| N#Cc1c(N)nc(N2CCOCC2)c(C#N)c1-c1ccc(Cl)cc1Cl | – | – | 10.9 | 35.2 | 19.5 | 56.9 | 13.7 | 41.3 | 18 | 62.4 | 19 | 51.8 | 5.67 | 38.4 | 19.9 | 48.1 | 16.4 | 39.3 | 24.2 | > 100 |
| COc1ccc(-c2ccc(/C=N/n3c(COc4ccc(Cl)c(C)c4)nn(CN4CCOCC4)c3=S)o2)c([N+](=O)[O-])c1 | 39.1 | > 100 µM | 17.7 | 51.1 | 12.5 | 34.9 | 17.3 | 44.8 | – | – | 18.6 | 46.6 | 19.1 | 52.7 | 27.6 | > 100 | 21.6 | 51.2 | 21.8 | 70.1 |
| CCNc1nc(-c2ccc(Cl)c(OC)c2)c(-c2ccnc(NCCNS(=O)(=O)c3ccc(Cl)cc3)n2)s1 | 3.14 | > 100 µM | 2.99 | > 100 | 2.93 | 8.39 | 2.45 | 5.27 | 3.44 | 49.4 | 1.89 | 3.83 | 2 | 5.1 | 3.51 | > 100 | 2.92 | 20.1 | – | – |
| CC(C)C12CCC3(CCC4C(C)(C(=O)O)CCCC4(C)C3C1)C(CN)C2 (configuration not stated) | – | > 100 µM | – | > 100 | – | 42 | – | > 100 | – | > 100 | – | > 100 | – | > 100 | – | > 100 | – | 47.2 | – | – |
| Cc1cc2c(SCc3ccccc3Cl)nc(N)nc2nc1C | – | > 100 µM | – | > 100 | – | > 100 | – | > 100 | – | > 100 | – | > 100 | – | > 100 | – | > 100 | – | > 100 | – | – |
